This note sets out measurements from US11213509B2, “Compositions and methods for treating traumatic brain injury” (Ischemix, LLC, priority 2017, dated 2022).

What all share (assay type): in vivo
In test [1] the test system is mitochondrial reactive oxygen species generation (mtROS). Put plainly: Mitochondrial reactive oxygen species generation 24 hours post-CCI, focal TBI model in piglets. As to conditions: p<0.0001 vs placebo. As for the experimental part:
(§1) Study Design: A blinded, placebo controlled proof of concept trial of CMX-2043 was conducted in four-week-old piglets (8-10 kg). […] Sixteen piglets (n=16) were designated into three cohorts: 1) Controlled cortical impact (CCI) at the rostral gyrus treated with a bolus of CMX-2043 (n=5), 2) CCI injured animals treated with placebo (n=5) and 3) sham animals (n=6). CMX-2043 treated animals received an intravenous loading bolus of CMX-2043 (13.4 mg/kg) 1 hour post-TBI and a 4.5 mg/kg bolus at 13 hours post-TBI. Subjects were intubated, ventilated and anesthesia maintained on isoflurane (1.0%). Buprenorphine (0.02 mg/kg IM) was administered for analgesia immediately following intubation. Monitors recorded oxygen saturation, heart rate, respiration rate, rectal temperature, and end tidal CO2. […] All piglets were sacrificed between 24-25 hours post-TBI.
(§2) Mitochondrial Respiration and ROS Production: Twenty four hours post-CCI the ipsilateral penumbra and mirrored contralateral cortex were harvested. The rate of oxygen consumption was recorded via high-resolution Oroboros Oxygraph-2k™ with a specific Substrate-Uncouple-Inhibitor-Titration Protocol (SUIT). […] Maximal reserve capacity of the electron transfer system (ETSCI+CII) was measured by titrating the protonophore carbonyl cyanide p-(trifluoro-methoxy) phenylhydrazone (FCCP). […]

The subject of test [2] is lipid peroxidation (4-HNE). Put plainly: Lipid peroxidation by 4-hydroxynonenal (4-HNE) Western blot, focal TBI model in piglets. The following applies: cortical penumbra, ipsilateral; vs placebo, p<0.001. As for the experimental part:
as §1
Samples from the same ipsilateral injured region analyzed for mtROS were analyzed for oxidative damage by measuring 4-HNE as an assessment of lipid peroxidation by Western Blot analysis (EMD Millipore), normalized by GAPDH (EMD Millipore), and compared to placebo and shams.

In test [3] the test system is mitochondrial bioenergetics. Put plainly: Mitochondrial respiration (respiratory control ratio) 24 hours post-CCI, focal TBI model in piglets. As for the experimental part: as §1, §2
Another test relates to protein carboxylation. Put plainly: Protein carboxylation by ELISA, focal TBI model in piglets. As to conditions: cortical penumbra, ipsilateral; vs placebo, p<0.01. As for the experimental part:
as §1
Samples from the same ipsilateral region that were analyzed for mtROS were analyzed for oxidative damage by measuring protein carboxylation (VWR Int'l), and compared to placebo and shams.
In general terms: In an ELISA, binding on a coated surface is turned into a signal by an enzyme label.

Turning to `CC(NC(=O)C(CCC(=O)O)NC(=O)CCCCC1CCSS1)C(=O)O` [CMX-2043, N—(R)-lipoyl-glutamylalanine], the “Mitochondrial ROS (mtROS) generation” value in test [1] (contralateral) is given as 5.13±1.67 H2O2/(μmol O2/s*mg); in test [1] (ipsilateral), 8.28±1.47 H2O2/(μmol O2/s*mg). In addition, in test [2], the “Lipid peroxidation (4-HNE)” value was “significant reduction in lipid peroxidation”. Further, the “Respiratory control ratio (RCR; OXPHOS CI+CII/LEAK CI+CII)” value amounted to 11.05±1.71 in test [3] (contralateral cortex, P=0.09 vs placebo); 11.61±2.28 in test [3] (ipsilateral cortex, i.v. 13.4 mg/kg at 1 hour and 4.5 mg/kg at 13 hours post-TBI, p<0.05 vs placebo). In the test on protein carboxylation, the “Protein carboxylation (ELISA)” value is given as “significant reduction in protein carboxylation”.
